# Source: ChEMBL document CHEMBL1201862, “PubChem BioAssay data set” (2004)
# Active and inactive are the calls of the source. No stated cut-off is given here; in the data, actives have a measured IC50 and inactives only a lower limit.
# Target: Envelope glycoprotein gp160 (Human immunodeficiency virus 1, UniProt Q6QLK5)
# Assay: inhibitors of HIV fusion peptide binding, primary screen, biochemical, uHTS, fluorescence dequenching (AID 1986)
# Sequence of Envelope glycoprotein gp160 (Q6QLK5 whole entry, the tested form may be a part): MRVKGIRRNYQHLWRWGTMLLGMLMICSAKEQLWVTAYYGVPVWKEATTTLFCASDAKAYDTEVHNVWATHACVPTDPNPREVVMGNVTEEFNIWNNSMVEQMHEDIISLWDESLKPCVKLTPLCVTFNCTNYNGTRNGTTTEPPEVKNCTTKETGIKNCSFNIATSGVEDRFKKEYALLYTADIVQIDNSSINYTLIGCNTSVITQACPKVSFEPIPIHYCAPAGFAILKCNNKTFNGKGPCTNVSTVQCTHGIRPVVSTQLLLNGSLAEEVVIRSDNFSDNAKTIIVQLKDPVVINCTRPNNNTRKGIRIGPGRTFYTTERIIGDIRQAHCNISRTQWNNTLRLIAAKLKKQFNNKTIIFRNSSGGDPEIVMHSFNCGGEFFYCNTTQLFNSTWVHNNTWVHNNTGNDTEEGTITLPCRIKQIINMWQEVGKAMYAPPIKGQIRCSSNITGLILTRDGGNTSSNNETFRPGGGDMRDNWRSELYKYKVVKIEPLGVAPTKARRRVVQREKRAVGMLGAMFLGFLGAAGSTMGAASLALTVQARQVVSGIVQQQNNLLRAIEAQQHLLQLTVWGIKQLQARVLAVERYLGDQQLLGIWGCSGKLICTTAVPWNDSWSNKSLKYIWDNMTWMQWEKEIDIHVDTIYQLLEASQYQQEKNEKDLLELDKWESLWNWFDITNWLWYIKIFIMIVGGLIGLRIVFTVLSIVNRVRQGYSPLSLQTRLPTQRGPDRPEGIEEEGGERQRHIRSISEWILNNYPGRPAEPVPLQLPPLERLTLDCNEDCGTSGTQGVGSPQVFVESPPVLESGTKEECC
row,Compound,IC50
1,O=C(O)CSc1ncnc2c1sc1nc(-c3ccccc3)c3c(c12)CCC3,28 µM (active)
2,O=C(O)COc1ccc(/C=C/C(=O)c2ccc(C3CCCCC3)cc2)cc1,17.7 µM (active)
3,CS(=O)(=O)C1=NSC2=NC(=O)/C(=C\c3ccc(OS(=O)(=O)c4ccccc4)cc3)C(=N)N21,18.2 µM (active)
4,COc1cc(/C=C2/SC(=S)N(CC(=O)O)C2=O)ccc1OCC(=O)Nc1ccc(C)c(C)c1,17.9 µM (active)
5,COc1ccc(/N=C2\S/C(=C\c3ccc(OC(C)C(=O)O)c(OC)c3)C(=O)N2CCc2c[nH]c3ccccc23)cc1 (stereo not given),18.9 µM (active)
